From US11000505B2 (priority 2010, dated 2021)
≈ marks a conversion by molar mass, not a printed value.

How the values were obtained:
[1] = Solubility in cyclodextrin solutions (HPLC)
cGMP = cGMP in CSF by ELISA (Example 1); assay type: in vivo, newborn pigs
[2] = Solubility in other solvents; settings: thermodynamic from solid
pial artery = assay type: in vivo, newborn pigs
[3] = Physical and chemical properties: pKa; settings: Non-ionizable
[4] = 10 μg/kg i.v. co-administrated with nor-BIN 1 μM topical
[5] = 10 μg/kg i.v. immediately or 30 min after HI, 60 min after HI

COC(=O)[C@@H]1C[C@H](OC(C)=O)C(=O)[C@H]2[C@@]1(C)CC[C@H]1C(=O)O[C@H](c3ccoc3)C[C@]21C [Salvinorin A]
solubility ([1]; 20% 2-hydroxypropyl-β-cyclodextrin (HPBCD) in water, aqueous with cosolvent or surfactant or cyclodextrin, thermodynamic from solid, Concentration (solubility), 20% HPBCD, mean ± SD): 122.5 ± 0.6 µg/mL (≈ 283 µM)
solubility ([1]; 20% 2-hydroxypropyl-β-cyclodextrin (HPBCD) in water, aqueous with cosolvent or surfactant or cyclodextrin, thermodynamic from solid, maximum concentration (solubility), HPBCD): > 100 µg/mL
solubility ([1]; 20% 2-hydroxypropyl-β-cyclodextrin (HPBCD) in water, aqueous with cosolvent or surfactant or cyclodextrin, thermodynamic from solid, solubility, 20% HPBCD): 122.5 ± 0.6 µg/mL (≈ 283 µM)
solubility ([1]; 20% 2-hydroxypropyl-γ-cyclodextrin (HPGCD) in water, aqueous with cosolvent or surfactant or cyclodextrin, thermodynamic from solid, Concentration (solubility), 20% HPGCD, mean ± SD): 52.6 ± 0.9 µg/mL (≈ 122 µM)
solubility ([1]; 20% 2-hydroxypropyl-γ-cyclodextrin (HPGCD) in water, aqueous with cosolvent or surfactant or cyclodextrin, thermodynamic from solid, solubility, 20% HPGCD): 52.6 ± 0.9 µg/mL (≈ 122 µM)
solubility ([1]; 20% α-cyclodextrin sulfated sodium salt in water, aqueous with cosolvent or surfactant or cyclodextrin, thermodynamic from solid, Concentration (solubility), 20% α-Cyclodextrin sulfated sodium salt, mean ± SD): 1 ± 0.1 µg/mL
solubility ([1]; 20% β-cyclodextrin sulfated sodium salt in water, aqueous with cosolvent or surfactant or cyclodextrin, thermodynamic from solid, Concentration (solubility), 20% β-Cyclodextrin sulfated sodium salt, mean ± SD): 1.5 ± 0.1 µg/mL
solubility ([1]; water and α- or β-cyclodextrin sulfated sodium salt): only minimally soluble
solubility ([1]; water, thermodynamic from solid, Concentration (solubility), 100% water, mean ± SD): 1 ± 0.1 µg/mL (≈ 2.31 µM)
cGMP in CSF (cGMP; 10 min after administration): elevated cGMP in CSF
cGMP in CSF in presence of L-NNA (cGMP; L-NNA pretreatment): L-NNA blocked the elevation of the cGMP
cGMP in CSF in presence of norbinaltorphimine (cGMP; norbinaltorphimine pretreatment, 10 nM and 1 μM): Norbinaltorphimine blocked the elevation of cGMP
solubility ([2]; 1,2-propanediol, organic solvent or mixture): 59 µg/mL (≈ 136 µM)
solubility ([2]; 1.25% Polysorbate 80 and […] Solutol HS15, aqueous with cosolvent or surfactant or cyclodextrin): 25 µg/mL (≈ 57.8 µM)
solubility ([2]; 2-propanol, organic solvent or mixture): 22 µg/mL (≈ 50.9 µM)
solubility ([2]; 5% Solutol HS15, aqueous with cosolvent or surfactant or cyclodextrin): 26 µg/mL (≈ 60.1 µM)
solubility ([2]; 5% Vitamin E TPGS, aqueous with cosolvent or surfactant or cyclodextrin): 45 µg/mL (≈ 104 µM)
solubility ([2]; 10% Tetraglycol, aqueous with cosolvent or surfactant or cyclodextrin): < 2 µg/mL
solubility ([2]; 10% bile salts, aqueous with cosolvent or surfactant or cyclodextrin): < 2 µg/mL
solubility ([2]; DMSO, organic solvent or mixture): > 1000 µg/mL
solubility ([2]; N,N-dimethylacetamide, organic solvent or mixture): > 5000 µg/mL
solubility ([2]; N-methylpyrolidinone, organic solvent or mixture): > 10000 µg/mL
solubility ([2]; […] Polysorbate 80, aqueous with cosolvent or surfactant or cyclodextrin): < 2 µg/mL
solubility ([2]; ethanol, organic solvent or mixture): > 1000 µg/mL
solubility ([2]; glyceryl monocaprylate, oil or lipid): < 2 µg/mL
solubility ([2]; water): < 2 µg/mL
pial artery dilation response to hypercapnia after HI with nor-BIN (pial artery; [4]): abolished completely
pial artery dilation response to hypotension after HI with nor-BIN (pial artery; [4]): abolished
pial artery dilation response to hypercapnia after HI (pial artery; [5]): preserved the dilation responses of pial artery to hypercapnia
pial artery dilation response to hypotension after HI (pial artery; [5]): preserved the dilation responses of pial artery to hypotension
pKa [3]: None
